Laboratory results reported in ChEMBL document CHEMBL1909046, “DrugMatrix in vitro pharmacology data”.

What was measured:
[1] = biological target: T1, Alpha-2A adrenergic receptor (Homo sapiens, UniProt P08913); type: cell membranes, Sf9, Membrane; also: in other assays of this panel Not Active means under 50% inhibition at 10 µM
T1 sequence (P08913 whole entry): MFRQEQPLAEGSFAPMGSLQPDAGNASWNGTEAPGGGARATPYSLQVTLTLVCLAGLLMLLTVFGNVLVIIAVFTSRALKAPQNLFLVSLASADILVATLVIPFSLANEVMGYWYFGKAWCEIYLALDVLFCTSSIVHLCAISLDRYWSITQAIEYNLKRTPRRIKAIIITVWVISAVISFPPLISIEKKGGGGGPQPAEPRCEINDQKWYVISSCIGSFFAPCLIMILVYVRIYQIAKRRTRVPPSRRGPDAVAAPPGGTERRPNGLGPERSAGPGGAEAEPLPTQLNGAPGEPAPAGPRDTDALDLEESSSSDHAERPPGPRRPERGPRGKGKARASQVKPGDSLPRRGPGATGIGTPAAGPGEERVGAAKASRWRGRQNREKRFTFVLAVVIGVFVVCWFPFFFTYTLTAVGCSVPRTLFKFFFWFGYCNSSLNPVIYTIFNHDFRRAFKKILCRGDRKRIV

Carbonic anhydrase 2 = Carbonic anhydrase 2 (Homo sapiens, UniProt P00918); test: DRUGMATRIX: Carbonic Anhydrase II enzyme inhibition (substrate: 4-Nitrophenyl acetate (4-NPA)); type: tissue-based, Erythrocyte; details: erythrocyte; Not Active = under 50% inhibition at 10 µM
[2] = biological target: T2, Cholecystokinin receptor type A (Homo sapiens, UniProt P32238); type: cell membranes, Membrane; details: 1321-n1; also: in other assays of this panel Not Active means under 50% inhibition at 10 µM
T2 sequence (P32238 whole entry): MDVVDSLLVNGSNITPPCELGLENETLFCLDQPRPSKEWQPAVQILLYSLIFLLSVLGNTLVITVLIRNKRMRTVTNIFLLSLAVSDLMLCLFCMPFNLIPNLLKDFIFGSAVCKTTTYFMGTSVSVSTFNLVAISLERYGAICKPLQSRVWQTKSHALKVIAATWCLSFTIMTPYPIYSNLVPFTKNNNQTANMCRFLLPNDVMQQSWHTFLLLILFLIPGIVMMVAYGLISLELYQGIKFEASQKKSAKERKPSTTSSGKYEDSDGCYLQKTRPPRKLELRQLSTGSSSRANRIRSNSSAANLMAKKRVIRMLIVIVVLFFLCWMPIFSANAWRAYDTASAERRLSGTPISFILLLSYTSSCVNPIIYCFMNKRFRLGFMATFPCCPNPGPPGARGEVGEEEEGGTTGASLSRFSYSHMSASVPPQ

D(1A) dopamine receptor = D(1A) dopamine receptor (Homo sapiens, UniProt P21728); test: DRUGMATRIX: Dopamine D1 radioligand binding (ligand: [3H] SCH-23390); type: cell membranes, CHO, Membrane; details: Not Active = under 50% inhibition at 10 µM
[3] = DRUGMATRIX: Glutamate, NMDA, Phencyclidine radioligand binding (ligand: [3H] TCP); type: cell membranes, Rattus norvegicus, Wistar, Cerebral cortex, Membrane; details: Not Active = under 50% inhibition at 10 µM
[4] = DRUGMATRIX: Interleukin IL-1 radioligand binding (ligand: [125I] interleukin 1beta); type: cell membranes, Membrane; details: nih3t3; Not Active = under 50% inhibition at 10 µM
[5] = biological target: T3, Cysteinyl leukotriene receptor 1 (Homo sapiens, UniProt Q9Y271); type: cell membranes, CHO-K1, Membrane; details: cho-k1; also: in other assays of this panel Not Active means under 50% inhibition at 10 µM
T3 sequence (Q9Y271 whole entry): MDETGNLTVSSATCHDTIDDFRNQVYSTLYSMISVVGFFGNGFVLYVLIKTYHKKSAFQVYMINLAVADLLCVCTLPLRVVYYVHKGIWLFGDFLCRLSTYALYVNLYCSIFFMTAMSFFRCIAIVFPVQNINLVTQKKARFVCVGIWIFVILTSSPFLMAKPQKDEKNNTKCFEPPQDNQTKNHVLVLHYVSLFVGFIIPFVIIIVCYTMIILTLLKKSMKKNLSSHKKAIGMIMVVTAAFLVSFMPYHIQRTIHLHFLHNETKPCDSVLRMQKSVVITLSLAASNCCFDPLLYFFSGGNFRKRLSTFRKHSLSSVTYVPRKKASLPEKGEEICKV

[6] = biological target: T4, Amine oxidase [flavin-containing] A (Homo sapiens, UniProt P21397); test: DRUGMATRIX: Monoamine Oxidase MAO-A enzyme inhibition (substrate: Kynuramine); parameters: species or system BTI-TN-5B1-4; details: bti-tn-5b1-4; Not Active = under 50% inhibition at 10 µM
T4 sequence (P21397 whole entry): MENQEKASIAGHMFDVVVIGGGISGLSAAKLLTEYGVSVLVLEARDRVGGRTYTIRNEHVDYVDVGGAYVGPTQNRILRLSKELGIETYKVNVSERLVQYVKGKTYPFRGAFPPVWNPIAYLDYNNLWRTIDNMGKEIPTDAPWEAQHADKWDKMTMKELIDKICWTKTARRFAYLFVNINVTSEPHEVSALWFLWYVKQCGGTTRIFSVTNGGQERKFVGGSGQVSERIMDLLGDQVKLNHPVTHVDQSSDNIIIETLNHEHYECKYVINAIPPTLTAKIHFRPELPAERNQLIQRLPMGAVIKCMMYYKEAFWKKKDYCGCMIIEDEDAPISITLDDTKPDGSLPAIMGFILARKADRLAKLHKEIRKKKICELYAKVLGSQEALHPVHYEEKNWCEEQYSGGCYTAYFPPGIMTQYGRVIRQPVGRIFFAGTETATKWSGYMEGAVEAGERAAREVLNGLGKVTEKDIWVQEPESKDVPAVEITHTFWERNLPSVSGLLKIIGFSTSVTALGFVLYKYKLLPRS

[7] = DRUGMATRIX: Phorbol Ester radioligand binding (ligand: [3H] PDBu); type: cell membranes, Mus musculus, ICR, Brain, Membrane; details: Not Active = under 50% inhibition at 10 µM
[8] = DRUGMATRIX: Phosphodiesterase PDE3 enzyme inhibition (substrate: [3H]cAMP + cAMP); type: tissue-based, Homo sapiens; details: platelet; Not Active = under 50% inhibition at 10 µM
[9] = DRUGMATRIX: Platelet-Derived Growth Factor (PDGF) radioligand binding (ligand: [125I] PDGF); type: cell-based; details: nih3t3; Not Active = under 50% inhibition at 10 µM
Neutrophil elastase = biological target: T5, Neutrophil elastase (Homo sapiens, UniProt P08246); type: tissue-based;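 also: inhibition of neutrophil elastase enzyme activity, measured with a p-nitroanilide-linked peptide substrate; in other assays of this panel Not Active means under 50% inhibition at 10 µM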
T5 sequence (P08246 whole entry): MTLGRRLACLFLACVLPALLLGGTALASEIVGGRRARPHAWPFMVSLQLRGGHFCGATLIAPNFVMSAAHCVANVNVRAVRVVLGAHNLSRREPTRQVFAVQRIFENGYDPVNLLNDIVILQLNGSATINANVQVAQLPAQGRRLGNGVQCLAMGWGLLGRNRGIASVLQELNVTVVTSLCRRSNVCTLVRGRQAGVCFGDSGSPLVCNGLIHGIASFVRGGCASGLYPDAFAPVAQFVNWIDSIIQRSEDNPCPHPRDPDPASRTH

[10] = DRUGMATRIX: Purinergic P2X radioligand binding (ligand: [3H] alpha, beta-Methylene-ATP); type: cell membranes, Oryctolagus cuniculus, New Zealand albino, Urinary bladder, Membrane; details: Not Active = under 50% inhibition at 10 µM
Estrogen receptor beta = Estrogen receptor beta (Homo sapiens, UniProt Q92731); details: sf9; also: in other assays of this panel Not Active means under 50% inhibition at 10 µM
Estrogen receptor beta, sequence (Q92731 whole entry): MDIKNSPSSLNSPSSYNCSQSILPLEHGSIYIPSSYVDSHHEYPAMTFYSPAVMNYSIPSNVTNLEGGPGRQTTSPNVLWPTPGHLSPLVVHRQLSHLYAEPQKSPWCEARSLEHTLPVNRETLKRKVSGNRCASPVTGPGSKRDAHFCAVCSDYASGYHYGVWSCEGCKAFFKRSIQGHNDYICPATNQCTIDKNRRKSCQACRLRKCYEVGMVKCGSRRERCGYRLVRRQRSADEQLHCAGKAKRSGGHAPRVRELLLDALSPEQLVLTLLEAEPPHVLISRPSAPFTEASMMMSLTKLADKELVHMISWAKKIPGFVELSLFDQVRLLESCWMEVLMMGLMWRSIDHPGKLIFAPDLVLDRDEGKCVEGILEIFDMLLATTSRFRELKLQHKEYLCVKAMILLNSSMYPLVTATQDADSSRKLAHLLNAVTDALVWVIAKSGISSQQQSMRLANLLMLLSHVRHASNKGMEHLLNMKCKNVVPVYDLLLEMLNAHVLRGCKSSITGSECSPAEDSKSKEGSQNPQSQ

D(1A) dopamine receptor, sequence (P21728 whole entry): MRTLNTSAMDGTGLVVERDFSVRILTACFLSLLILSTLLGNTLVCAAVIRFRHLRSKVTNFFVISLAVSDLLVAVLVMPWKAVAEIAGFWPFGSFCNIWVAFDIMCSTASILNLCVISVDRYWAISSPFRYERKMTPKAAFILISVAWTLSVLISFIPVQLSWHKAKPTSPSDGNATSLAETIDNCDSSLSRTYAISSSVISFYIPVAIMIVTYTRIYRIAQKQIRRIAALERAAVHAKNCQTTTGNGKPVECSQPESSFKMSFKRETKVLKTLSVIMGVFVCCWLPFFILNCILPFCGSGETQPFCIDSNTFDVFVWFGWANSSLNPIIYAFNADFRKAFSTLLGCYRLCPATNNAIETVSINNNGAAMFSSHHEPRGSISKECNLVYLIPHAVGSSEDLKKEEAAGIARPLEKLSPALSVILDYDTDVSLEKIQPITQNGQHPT

Compound	IC50 ([1]; sf9)	IC50 (Carbonic anhydrase 2)	IC50 [2]	IC50 (D(1A) dopamine receptor; cho)	IC50 [3]	Ki [3]	IC50 [4]	Ki [4]	IC50 [5]	IC50 [6]	IC50 [7]	Ki [7]	IC50 [8]	Ki [8]	IC50 [9]	Ki [9]	IC50 (Neutrophil elastase)	IC50 [10]	Ki [10]	IC50 (Estrogen receptor beta)	further results
C=C1CC[C@H](O)C/C1=C/C=C1\CCC[C@]2(C)[C@@H]([C@H](C)/C=C/[C@H](C)C(C)C)CC[C@@H]12 [ERGOCALCIFEROL]	Not Active	Not Active	Not Active	Not Active	Not Active	Not Active	Not Active	Not Active	Not Active	Not Active	Not Active	Not Active	Not Active	Not Active	Not Active	Not Active	Not Active	Not Active	Not Active	Not Active	–
CN1C[C@H](C(=O)N[C@]2(C)O[C@@]3(O)[C@@H]4CCCN4C(=O)[C@H](Cc4ccccc4)N3C2=O)C=C2c3cccc4[nH]cc(c34)C[C@H]21 [ERGOTAMINE]	–	Not Active	Not Active	–	Not Active	Not Active	Not Active	Not Active	Not Active	Not Active	Not Active	Not Active	Not Active	Not Active	Not Active	Not Active	Not Active	Not Active	Not Active	Not Active	IC50 ([1]; read-out: IC50): 2.12 nM; Ki ([1]; read-out: Ki): 0.796 nM; IC50 (D(1A) dopamine receptor; read-out: IC50): 1730 nM; Ki (D(1A) dopamine receptor; read-out: Ki): 864 nM
CCc1cccc2c3c([nH]c12)C(CC)(CC(=O)O)OCC3 (configuration not stated) [ETODOLAC]	Not Active	Not Active	Not Active	Not Active	Not Active	Not Active	Not Active	Not Active	Not Active	Not Active	Not Active	Not Active	Not Active	Not Active	Not Active	Not Active	Not Active	Not Active	Not Active	Not Active	–
Cc1c(-c2ccccc2)oc2c(C(=O)OCCN3CCCCC3)cccc2c1=O [FLAVOXATE]	Not Active	Not Active	Not Active	Not Active	Not Active	Not Active	Not Active	Not Active	Not Active	Not Active	Not Active	Not Active	Not Active	Not Active	Not Active	Not Active	Not Active	Not Active	Not Active	Not Active	–
Nc1nc(=O)[nH]cc1F [FLUCYTOSINE]	Not Active	Not Active	Not Active	Not Active	Not Active	Not Active	Not Active	Not Active	Not Active	Not Active	Not Active	Not Active	Not Active	Not Active	Not Active	Not Active	Not Active	Not Active	Not Active	Not Active	–
O=C1OC2(c3ccc(O)cc3Oc3cc(O)ccc32)c2ccccc21 [FLUORESCEIN]	Not Active	Not Active	Not Active	Not Active	Not Active	Not Active	Not Active	Not Active	Not Active	Not Active	Not Active	Not Active	Not Active	Not Active	Not Active	Not Active	Not Active	Not Active	Not Active	Not Active	–
CC(=O)[C@@]1(O)CC[C@H]2[C@@H]3C[C@H](C)C4=CC(=O)C=C[C@]4(C)[C@@]3(F)[C@@H](O)C[C@@]21C [FLUOROMETHOLONE]	Not Active	Not Active	Not Active	Not Active	Not Active	Not Active	Not Active	Not Active	Not Active	Not Active	Not Active	Not Active	Not Active	Not Active	Not Active	Not Active	Not Active	Not Active	Not Active	Not Active	–
